# Several values for one entry are separate records, joined by “and”; a condition that tells them apart may be missing. Equal entries are not always repeated.
# Assays:
# [1] = system: human ASS1 protein production in wild type mouse liver; experiment: In vivo human ASS1 protein production (ELISA) via hASS1 mRNA-loaded lipid nanoparticles; conditions: Table 1, human ASS1 by ELISA, CD-1 mice, single bolus intravenous injection, 1.0 mg/kg encapsulated ASS1 mRNA, twenty-four hours post-injection
# Experimental: (§1) All studies were performed using male CD-1 mice of approximately 6-8 weeks of age at the beginning of each experiment. Samples were introduced by a single bolus tail-vein injection of an equivalent total dose of 1.0 mg/kg (or otherwise specified) of encapsulated ASS1 mRNA. Mice were sacrificed and perfused with saline at the designated time points.
# The liver, spleen, kidney and heart of each mouse was harvested, apportioned into separate parts, and stored in either 10% neutral buffered formalin or snap-frozen and stored at −80° C. for analysis.
# Human ASS1 ELISA: Standard ELISA procedures were followed employing mouse anti-ASS1 2D1-2E12 IgG as the capture antibody with rabbit anti-ASS1 #3285 IgG as the secondary (detection) antibody (Shire Human Genetic Therapies). Horseradish peroxidase (HRP)-conjugated goat anti-rabbit IgG was used for activation of the 3,3′,5,5′-tetramethylbenzidine (TMB) substrate solution. The reaction was quenched using 2N H2SO4 after 20 minutes. Detection was monitored via absorption (450 nm) on a Molecular Device SpectraMax instrument. Untreated mouse serum and organs and human ASS1 protein were used as negative and positive controls, respectively.
# The production of human ASS1 protein via codon-optimized hASS1 mRNA-loaded lipid nanoparticles, comprising compounds of formula I, was tested in CD-1 mice as a single, bolus intravenous injection, as described above. FIG. 1 depicts the amount of human ASS1 protein detected via ELISA when treating mice human ASS1 mRNA-loaded lipid nanoparticles, with various racemic and chiral compounds of formula I, at 1.0 mg/kg doses. The mice were sacrificed twenty-four hours post-injection and organs, such as livers, were harvested.
# [2] = system: CD-1 mice; experiment: Toxicity studies: expression levels of ALT and AST after ASS1 mRNA-loaded lipid nanoparticles; type: in vivo, mouse
# Experimental: as §1
# All animals were euthanized by CO2 asphyxiation at designated time points post dose administration (±5%) followed by thoracotomy and terminal cardiac blood collection. Whole blood (maximal obtainable volume) will be collected via cardiac puncture on euthanized animals into serum separator tubes, allowed to clot at room temperature for at least 30 minutes, centrifuged at 22° C.±5° C. at 9300 g for 10 minutes, and the serum will be extracted. For interim blood collections, approximately 40-50 μL of whole blood will be collected via facial vein puncture or tail snip. Samples collected from non treatment animals were used as a baseline ASS1 levels for comparison to study animals.
# The chiral compounds of formula I generally yielded lower expression levels of ALT and/or AST, i.e., correlating to lower liver toxicity issues, compared to stereochemically non-enriched, or stereochemically less enriched, compositions of the same lipid.
# [3] = Table 1, ASS1 mRNA-loaded lipid nanoparticles with the named cKK-E12 composition as cationic lipid, mice, intravenous
# [4] = Table 2, single intravenous dose, 24 hours post, formulation cKK-E12:DOPE:Chol:DMG-PEG2K, several lots per structure, in U/L
# [5] = Table 2, single intravenous dose, 24 hours post, formulation cKK-E12:DOPE:Chol:DMG-PEG2K, several lots per structure, listed as S4-RS/SR, in U/L
Structure (SMILES),ASS1 (ng/mg Total Protein) ([1]; 1 mg/kg),"ALT [2, 3]","AST [2, 3]",ASS1 (ng/mg Total Protein) [1] [ng/mg Total Protein],"ALT [2, 4]","AST [2, 4]","ALT [2, 5]","AST [2, 5]"
CCCCCCCCCC[C@H](O)CN(CCCCC1NC(=O)C(CCCCN(C[C@@H](O)CCCCCCCCCC)C[C@@H](O)CCCCCCCCCC)NC1=O)C[C@@H](O)CCCCCCCCCC (mixture of isomers) [S4 with Racemic Lysine Core],375 ± 244 ng/mg Total Protein and 674 ± 147 ng/mg Total Protein,170 ± 40 U/L and 155 ± 57 U/L,132 ± 44 U/L and 157 ± 38 U/L,–,–,–,–,–
"CCCCCCCCCC[C@H](O)CN(CCCC[C@@H]1NC(=O)[C@H](CCCCN(C[C@@H](O)CCCCCCCCCC)C[C@@H](O)CCCCCCCCCC)NC1=O)C[C@@H](O)CCCCCCCCCC [S4-S,S-cKKE12, (3S,6S)-3,6-bis(4-(bis((S)-2-hydroxydodecyl)amino)butyl)piperazine-2,5-dione]",–,226 ± 71 U/L,384 ± 233 U/L,1121 ± 468,226 ± 71,384 ± 233,–,–
CCCCCCCCCC[C@@H](O)CN(CCCC[C@H]1NC(=O)[C@@H](CCCCN(C[C@H](O)CCCCCCCCCC)C[C@H](O)CCCCCCCCCC)NC1=O)C[C@H](O)CCCCCCCCCC [R4-RR],–,–,–,–,136 ± 34,194 ± 80,–,–
CCCCCCCCCCC(O)CN(CCCC[C@@H]1NC(=O)[C@H](CCCCN(CC(O)CCCCCCCCCC)CC(O)CCCCCCCCCC)NC1=O)CC(O)CCCCCCCCCC (mixture of isomers) [Racemic —OH with SS Lysine Core],117 ± 80 ng/mg Total Protein and 209 ± 169 ng/mg Total Protein,378 ± 58 U/L and 618 ± 503 U/L,622 ± 76 U/L and 638 ± 273 U/L,–,–,–,–,–
"CCCCCCCCCCC(O)CN(CCCC[C@@H]1NC(=O)[C@H](CCCCN(CC(O)CCCCCCCCCC)CC(O)CCCCCCCCCC)NC1=O)CC(O)CCCCCCCCCC (stereo in doubt) [R4-S,S-cKKE12, (3S,6S)-3,6-bis(4-(bis((S)-2-hydroxydodecyl)amino)butyl)piperazine-2,5-dione]",–,175 ± 102 U/L,144 ± 35 U/L,449 ± 105,175 ± 102,144 ± 35,–,–
CCCCCCCCCC[C@H](O)CN(CCCC[C@H]1NC(=O)[C@@H](CCCCN(C[C@@H](O)CCCCCCCCCC)C[C@@H](O)CCCCCCCCCC)NC1=O)C[C@@H](O)CCCCCCCCCC [S4-RR],–,–,–,–,152 ± 9,180 ± 42,–,–
CCCCCCCCCC[C@@H](O)CN(CCCCC1NC(=O)C(CCCCN(C[C@H](O)CCCCCCCCCC)C[C@H](O)CCCCCCCCCC)NC1=O)C[C@H](O)CCCCCCCCCC (mixture of isomers) [R4 with Racemic Lysine Core],823 ± 215 ng/mg Total Protein and 568 ± 248 ng/mg Total Protein,188 ± 22 U/L and 236 ± 163 U/L,265 ± 122 U/L and 237 ± 139 U/L,–,–,–,–,–
"CCCCCCCCCC[C@H](O)CN(CCCC[C@@H]1NC(=O)[C@@H](CCCCN(C[C@@H](O)CCCCCCCCCC)C[C@@H](O)CCCCCCCCCC)NC1=O)C[C@@H](O)CCCCCCCCCC [S4-S,R-cKKE12]",–,190 ± 75 U/L,193 ± 71 U/L,2303 ± 491,–,–,143 ± 29 and 189 ± 47 and 190 ± 75,240 ± 98 and 203 ± 87 and 193 ± 71
